Data published in ChEMBL document CHEMBL1159026, “Brominated beta-carbolines from the marine tunicate Eudistoma album” (1992).
Values after ≈ are worked out from the molar mass of the structure shown.

Tests used:
Type in all cases: functional
[1] = system: KB; assay: Cytotoxicity against human KB cells at 0.005 to 10 ug/ml
[2] = system: KB; assay: Cytotoxicity against human KB cells at 10 ug/ml
[3] = system: KB; assay: Cytotoxicity against human KB cells at 5 ug/ml
[4] = system: KB; assay: Cytotoxicity against human KB cells at 1 ug/ml
[5] = system: KB; assay: Cytotoxicity against human KB cells; settings: read-out: ED50 (the source's name)

Row | SMILES | EC50 ([1]; Homo sapiens, KB, read-out: ED50 (the source's name)) [µg/mL] | Activity [2] [%] | Activity [3] [%] | Activity [4] [%] | EC50 [5] [µg/mL] | Activity [1] [%]
1 | CC(C)CC(N)c1nccc2c1[nH]c1cc(Br)ccc12 (centres undefined) [EUDISTALBIN A] | 3.2 (≈ 9.63 µM) | 100 | 92 | 0 | 3.2 (≈ 9.63 µM) | –
2 | CC(C)CC(=O)c1nccc2c1[nH]c1cc(Br)ccc12 [EUDISTALBIN B] | – | 0 | – | 0 | – | –
3 | N[C@@H]1CSCON2CCc3c([nH]c4ccc(O)c(Br)c34)[C@H]12 [EUDISTOMIN E] | – | – | – | – | < 0.005 | 100
